Reference: patent US8822449B2, “Substituted aminoindanes and analogs thereof, and the pharmaceutical use thereof” (Sanofi, priority 2008, dated 2014)
pIC50: −log10 of the molar value.

biological target: T1, sodium-proton exchanger of subtype 3 (NHE3) (Homo sapiens, UniProt P48764); assay: Recovery of intracellular pH (pHi) after acidification in LAP1 cells stably expressing NHE3 (BCECF fluorescence, FLIPR); assay type: cell-based; conditions: LAP1 cells stably expressing NHE3; pH recovery after acidification; range 1 is % inhibition at 10 μM; read-out: Activity range (inhibitory effect on NHE3)
T1 construct: expressed in transfected cells
T1 sequence (P48764 26-834): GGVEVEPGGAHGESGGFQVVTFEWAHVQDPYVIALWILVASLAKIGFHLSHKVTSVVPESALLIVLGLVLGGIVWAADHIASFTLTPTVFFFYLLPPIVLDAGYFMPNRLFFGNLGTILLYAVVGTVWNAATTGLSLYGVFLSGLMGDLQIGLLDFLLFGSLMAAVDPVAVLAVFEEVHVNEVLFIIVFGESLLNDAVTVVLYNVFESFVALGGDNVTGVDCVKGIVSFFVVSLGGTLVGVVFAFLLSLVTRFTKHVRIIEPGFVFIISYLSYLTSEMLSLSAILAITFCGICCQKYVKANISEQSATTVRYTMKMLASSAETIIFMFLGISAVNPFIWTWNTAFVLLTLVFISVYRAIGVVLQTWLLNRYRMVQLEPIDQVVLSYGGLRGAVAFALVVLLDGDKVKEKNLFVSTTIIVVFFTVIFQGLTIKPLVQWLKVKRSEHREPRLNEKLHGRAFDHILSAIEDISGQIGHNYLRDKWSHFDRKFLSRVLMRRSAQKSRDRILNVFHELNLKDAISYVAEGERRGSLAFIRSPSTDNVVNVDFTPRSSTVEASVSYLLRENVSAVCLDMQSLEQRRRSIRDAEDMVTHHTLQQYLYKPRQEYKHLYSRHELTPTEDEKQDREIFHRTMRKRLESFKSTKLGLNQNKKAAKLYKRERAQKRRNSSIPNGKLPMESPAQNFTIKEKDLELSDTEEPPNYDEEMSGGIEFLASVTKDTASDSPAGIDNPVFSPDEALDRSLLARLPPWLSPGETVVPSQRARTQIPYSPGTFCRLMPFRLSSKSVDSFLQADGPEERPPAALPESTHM

Compound | pIC50 | inhibition at 10 µM
NCC1CCN([C@@H]2Cc3ccccc3[C@H]2Oc2cccc(N3CCNCC3)c2)CC1 (racemic) [Example 616, C-{1-[rac-trans-(1,2)-1-(3-piperazin-1-ylphenoxy)indan-2-yl]piperidin-4-yl}methylamine] | 5.00 to 6.00 | –
NS(=O)(=O)c1ccc(O[C@H]2c3cc(Cl)cc(F)c3C[C@@H]2NC2CCCC2)c(F)c1 [Example 750, 4-(trans-(1S,2S)-6-Chloro-2-cyclopentylamino-4-fluoro-indan-1-yloxy)-3-fluoro-benzenesulfonamide] | 5.00 to 6.00 | –
CC(=O)Nc1cccc(O[C@@H]2c3ccccc3C[C@H]2N2CCC(CN)C2)c1 (mixture of isomers) [Example 686, N-{3-[rac-trans-(1,2)-2-(3-aminomethylpyrrolidin-1-yl)indan-1-yloxy]phenyl}acetamide] | 5.00 to 6.00 | –
O=C1CCCN1c1ccc(O[C@H]2c3cc(Cl)cc(Cl)c3C[C@@H]2N2CCC2)cc1 [Example 259, 1-[4-((1S,2S)-2-azetidin-1-yl-4,6-dichloroindan-1-yloxy)phenyl]pyrrolidin-2-one] | – | 20 to 50%
COC(=O)c1ccc(O[C@H]2c3cc(Cl)cc(Cl)c3C[C@@H]2N2CC[C@@H](O)C2)c(F)c1 [Example 553, 4-[trans-(1S,2S)-4,6-dichloro-2-((R)-3-hydroxypyrrolidin-1-yl)indan-1-yloxy]-3-fluorobenzoic acid methyl ester] | 5.00 to 6.00 | –
CS(=O)(=O)c1ccc(O[C@H]2c3cc(Cl)cc(Cl)c3C[C@@H]2NC2CCCC2)cc1 [Example 747, Cyclopentyl-[trans-(1S,2S)-4,6-dichloro-1-(4-methanesulfonyl-phenoxy)-indan-2-yl]-amine] | 5.00 to 6.00 | –
O=C1OCCN1c1cccc(O[C@H]2c3cc(Cl)cc(Cl)c3C[C@@H]2N2CC[C@@H](O)C2)c1 [Example 419, 3-{3-[(1S,2S)-4,6-dichloro-2-((R)-3-hydroxypyrrolidin-1-yl)indan-1-yloxy]phenyl}oxazolidin-2-one] | 5.00 to 6.00 | –
CS(=O)(=O)c1ccc(O[C@@H]2c3ccccc3C[C@H]2NCC2CC2)cc1 (racemic) [Example 624, Cyclopropylmethyl-[1-(4-methanesulfonylphenoxy)indan-2-yl]amine] | 5.00 to 6.00 | –
Cc1ccc(O[C@H]2c3ccccc3CC[C@@H]2N2CCC[C@@H](N)C2)cc1Cl (racemic) [Example 53, (R)-1-[rac-trans-(1,2)-1-(3-chloro-4-methylphenoxy)-1,2,3,4-tetrahydronaphthalen-2-yl]piperidin-3-ylamine] | – | 20 to 50%
Cc1cn(-c2ccc(O[C@H]3c4cc(Cl)cc(F)c4C[C@@H]3N3CC[C@@H](O)C3)cc2)c(C(C)C)n1 [Example 720, (R)-1-{trans-(1S,2S)-6-Chloro-4-fluoro-1-[4-(2-isopropyl-4-methyl-imidazol-1-yl)-phenoxy]-indan-2-yl}-pyrrolidin-3-ol] | 5.00 to 6.00 | –
N[C@@H]1CCCN([C@H]2CCc3ccccc3[C@@H]2Oc2ccc(F)c(F)c2)C1 (racemic) [Example 51, (R)-1-[rac-trans-(1,2)-1-(3,4-difluorophenoxy)-1,2,3,4-tetrahydronaphthalen-2-yl]piperidin-3-ylamine] | – | 20 to 50%
N#Cc1ccc(O[C@@H]2c3ccccc3C[C@H]2N2CCC(CN)CC2)cc1Cl (racemic) [Example 546, 4-[rac-trans-(1,2)-2-(4-aminomethylpiperidin-1-yl)indan-1-yloxy]-2-chlorobenzonitrile] | 5.00 to 6.00 | –
COc1cccc(F)c1O[C@@H]1c2ccccc2C[C@H]1N1CCC(CN)CC1 (racemic) [Example 604, C-{1-[rac-trans-(1,2)-1-(2-fluoro-6-methoxyphenoxy)indan-2-yl]piperidin-4-yl}methylamine] | > 6.00 | –
N[C@H]1CCCN([C@H]2CCc3ccccc3[C@@H]2Oc2cccc3ncccc23)C1 (racemic) [Example 193, (S)-1-[rac-trans-(1,2)-1-(quinolin-5-yloxy)-1,2,3,4-tetrahydronaphthalen-2-yl]piperidin-3-ylamine] | 5.00 to 6.00 | –
CC(=O)Nc1cccc(O[C@@H]2c3cc(Cl)cc(F)c3C[C@H]2N2CCCC2)c1 (racemic) [Example 660, N-[3-(rac-trans-(1,2)-6-chloro-4-fluoro-2-pyrrolidin-1-ylindan-1-yloxy)phenyl]acetamide] | 5.00 to 6.00 | –
CS(=O)(=O)c1ccc(O[C@H]2c3cc(Cl)cc(Cl)c3C[C@@H]2N2CCNCC2)cc1 [Example 308, 1-[trans-(1S,2S)-4,6-dichloro-1-(4-methanesulfonylphenoxy)indan-2-yl]piperazine] | > 6.00 | –
Cc1nnc(C)n1-c1ccc(O[C@H]2c3cc(Cl)cc(Cl)c3C[C@@H]2N(C)CCO)c(F)c1 [Example 704, 2-({trans-(1S,2S)-4,6-Dichloro-1-[4-(3,5-dimethyl-[1,2,4]triazol-4-yl)-2-fluoro-phenoxy]-indan-2-yl}-methyl-amino)-ethanol] | > 6.00 | –
Brc1ccccc1O[C@@H]1c2ccccc2C[C@H]1N1C[C@H]2CNC[C@H]2C1 (racemic) [Example 11, 2-[rac-trans-(1,2)-1-(2-bromophenoxy)indan-2-yl]octahydropyrrolo[3,4-c]pyrrole] | 5.00 to 6.00 | –
O=C1CCC(=O)N1c1ccc(Cl)c(O[C@H]2c3cc(Cl)cc(Cl)c3C[C@@H]2N2CC[C@@H](O)C2)c1 [Example 337, 1-{4-chloro-3-[(1S,2S)-4,6-dichloro-2-((R)-3-hydroxypyrrolidin-1-yl)indan-1-yloxy]phenyl}pyrrolidine-2,5-dione] | 5.00 to 6.00 | –
c1cc(O[C@@H]2c3ccccc3C[C@H]2N2C[C@H]3CNC[C@H]3C2)cc(N2CCCCC2)c1 (racemic) [Example 15, 2-[rac-trans-(1,2)-1-(3-piperidin-1-ylphenoxy)indan-2-yl]octahydropyrrolo[3,4-c]pyrrole] | 5.00 to 6.00 | –
NS(=O)(=O)c1cc(Cl)c(O[C@H]2c3ccccc3C[C@@H]2N2CCCC2)c(Cl)c1 (racemic) [Example 402, 3,5-dichloro-4-(rac-trans-(1,2)-2-pyrrolidin-1-ylindan-1-yloxy)benzenesulfonamide] | 5.00 to 6.00 | –
N#Cc1ccc(O[C@@H]2c3ccccc3C[C@H]2N2CCC(N)C2)c(Cl)c1 (mixture of isomers) [Example 543, 4-[rac-trans-(1,2)-2-(3-aminopyrrolidin-1-yl)indan-1-yloxy]-3-chlorobenzonitrile] | 5.00 to 6.00 | –
CS(=O)(=O)c1ccc(O[C@H]2c3cc(F)cc(F)c3C[C@@H]2N2CC[C@@H](O)C2)cc1 [Example 28, (R)-1-[(1S,2S)-4,6-difluoro-1-(4-methanesulfonylphenoxy)indan-2-yl]pyrrolidin-3-ol] | 5.00 to 6.00 | –
O=C1CCCN1c1cccc(O[C@H]2c3cc(Cl)cc(Cl)c3C[C@@H]2N2CC[C@@H](O)C2)c1 [Example 315, 1-{3-[(1S,2S)-4,6-dichloro-2-((R)-3-hydroxypyrrolidin-1-yl)indan-1-yloxy]phenyl}pyrrolidin-2-one] | 5.00 to 6.00 | –
COc1ccc(O[C@H]2c3ccccc3CC[C@@H]2N2CCC[C@@H](N)C2)c(F)c1 (racemic) [Example 42, (R)-1-[rac-trans-(1,2)-1-(2-fluoro-4-methoxyphenoxy)-1,2,3,4-tetrahydronaphthalen-2-yl]piperidin-3-ylamine] | – | 20 to 50%
CC(=O)Nc1cccc(O[C@H]2c3c(Cl)cc(Cl)cc3C[C@@H]2N(C)C)c1 (racemic) [Example 654, N-[3-(rac-trans-(1,2)-5,7-dichloro-2-dimethylaminoindan-1-yloxy)phenyl]acetamide] | – | 20 to 50%
NS(=O)(=O)c1ccc(O[C@H]2c3ccccc3C[C@@H]2N2CCCC(O)C2)c(Cl)c1Cl (mixture of isomers) [Example 361, 2,3-dichloro-4-[trans-(1S,2S)-2-(3-hydroxy-piperidin-1-yl)indan-1-yloxy]benzenesulfonamide] | 5.00 to 6.00 | –
CC1(C)NC(=O)N(c2ccc(Cl)c(O[C@H]3c4cc(Cl)cc(F)c4C[C@@H]3N3CC[C@@H](O)C3)c2)C1=O [Example 436, 3-{4-chloro-3-[(1S,2S)-6-chloro-4-fluoro-2-((R)-3-hydroxypyrrolidin-1-yl)indan-1-yloxy]phenyl}-5,5-dimethylimidazolidine-2,4-dione] | 5.00 to 6.00 | –
Cn1ccn(-c2cc(O[C@H]3c4cc(Cl)cc(Cl)c4C[C@@H]3N3CC[C@@H](O)C3)ccc2F)c1=O [Example 745, 1-{5-[trans-(1S,2S)-4,6-Dichloro-2-((R)-3-hydroxy-pyrrolidin-1-yl)-indan-1-yloxy]-2-fluoro-phenyl}-3-methyl-1,3-dihydro-imidazol-2-one] | – | 20 to 50%
Cc1nnc(C)n1-c1ccc(O[C@H]2c3ccccc3C[C@@H]2N2CCCC2)c(Cl)c1 (racemic) [Example 490, 4-[3-chloro-4-(rac-trans-(1,2)-2-pyrrolidin-1-ylindan-1-yloxy)phenyl]-3,5-dimethyl-4H-[1,2,4]triazole] | > 6.00 | –
